Results on one molecule are retold here after patent publication EP3501540A1, “MITOCHONDRIAL TRIFUNCTIONAL PROTEIN (MTP) INHIBITORS FOR USE IN THE TREATMENT OF HIGH MITOCHONDRIAL RESPIRATION (OX+) CANCERS” (UNIVERSITE DE BORDEAUX, priority 2017, dated 2019).

Test [1] concerns human lung OX- H460 adenocarcinoma. The test is described as follows: Orthotopic mouse model of human lung OX- adenocarcinoma. It is filed as in vivo, mice. Particulars: 20 mg/kg daily. The text has this: (§1) All procedures using animals were approved by the Animal Care and Use Ethics Committee of the University of Bordeaux. The NOD/LtSz-scid/IL-2Rychain^null (NSG) mice were produced and housed in the University Bordeaux Segalen animal facility, according to the rules and regulations governed and enforced by the Institutional Animal Care and Use Committee. The animal facility institutional agreement number is A33063916. Animals were included in protocols between 6 and 8 weeks old. Mice were monitored weekly for body weights and were also examined for aspect and behavior during the time-course of the experiments. No changes were noticed except otherwise indicated.
(§2) The orthotopic mouse models of OX+ or OX- human LUAD were obtained by using luciferase expressing clones of A549 or H460 lung adenocarcinoma cell lines, respectively. Groups of 5 mice were anesthetized with isoflurane and 1 × 10^6 cells in a volume of 100µl were injected in the lung of 8-weeks NGS mice and imaged 20 min after injection. Bioluminescence imaging (BLI) was performed on a Bioimager following intraperitonal injection of 150 mg/kg of D-Luciferin (Interchim, Montluçon, France). After 10 min, mice were anesthetized by isoflurane and placed into a photon bioimager (BIOSPACE LAB, Paris, France) for about 20 min to acquire luminescence images. Signals were quantified with the M3Vision software (BIOSPACE LAB). […]

Test [2] deals with A549 cells expressing luciferase. The test is described as follows: Orthotopic mouse model of human lung OX+ adenocarcinoma, bioluminescence imaging. It is filed as in vivo, mice. The note with it: luminescence imaging at day 3 and day 18; Trimetazidine 20mg/kg/day.
From the text: as §1, §2

Test [3] in a line: Mass spectrometry lipidomic analysis of blood. It is filed as in vivo, mice. The note with it: 20mg/kg/day, day 7. The method, then: Extracted samples were dissolved in 100 µL CHC13; 15 µL was injected for analysis. LC separation was achieved using a Bio-Bond 5U C4 column (Dikma). The LC solvents were as follows: buffer A, 95:5 H2O:methanol + 0.03% NH4OH; buffer B, 60:35:5 isopropanol:methanol:H2O + 0.03% NH4OH. A typical LC run consisted of the following for 70 min after injection: 0.1 mL/min 100% buffer A for 5 min, 0.4 mL/min linear gradient from 20% buffer B to 100% buffer B over 50 min, 0.5 mL/min 100% buffer B for 8 min and equilibration with 0.5 mL/min 100% buffer A for 7 min. FFA analysis was performed using a Thermo Scientific Q Exactive Plus fitted with a heated electrospray ionization source. The MS source parameters were 4 kV spray voltage, with a probe temperature of 437.5 °C and capillary temperature of 268.75 °C. Full-scan MS data was collected with a resolution of 70 k, AGC target 1 × 106, maximum (max) injection time of 100 ms and a scan range of 150-2,000 m/z. […] Extracted ion chromatograms for each FFA were generated using a m/z ± 0.01 mass window around the calculated exact mass (i.e., palmitic acid, calculated exact mass for M-H is 255.2330, and the extracted ion chromatogram was 255.22-255.24). Quantification of the FFAs was performed by measuring the area under the peak and dividing this number by the area under the peak for [^13C16]palmitate. […]

In test [4] the test system is A549 (OX+) cells. The test is described as follows: Sulphorodamine B viability assay. It is filed as cell-based, human. Particulars: A549 (OX+) cells in vitro. The method, then: A549_LUC and H460_LUC, human lung cancer cells, were stably transfected with luciferase (pRRLsin-MND-Luc-WPRE). […] Also, they were tested as luciferase positive using direct application of 2 mL of a 150 mg/ml solution of luciferine (Firefly Luciferin, Caliper Lifescience Corp, USA), followed by immediate bioluminescent imaging using the photonIMAGER™ optima system.
Briefly, cells were seeded in 96-well plates and medium was changed after 24 h, then Test Reagent was added on top of the cell wells and incubated for up to 72h. The viability assay was performed using Sulforhodamine B colorimetric assay for viability assay following the protocol described by Vanicha Vichai & Kanyawim Kirtikara.

Test [5] concerns A549 (OX+) cells. Briefly: Oxygen consumption by high-resolution respirometry. It is filed as cell-based, human. Particulars: 500µM for 48H. The method, then:
O2 consumption rates were measured polarographically using high-resolution respirometry (Oroboros Oxygraph-O2K). After the treatment period, medium was removed and cells were either suspended in DMEM in the presence of glucose or not for measurements of O2 consumption of intact cells, or in the respiration medium pH 7.2 (mannitol 0.25 M, MgCl2 10 mM, KH2PO4 10 mM, HEPES 10 mM, EDTA 0.08 mM, EGTA 1 mM and fatty acid free BSA 0.1%) for evaluation of respiratory complexes of permeabilized cells. Routine consumption, oligomycin-independent respiration (proton leak), FCCP-stimulated respiration (ETS capacity - maximum respiration) and ROX (oxygen consumption in presence of rotenone and antimicyn A) were measured in intact […] cells. All the values were corrected by ROX. The respiratory activity of ETF of digitonin 0.0015%-permeabilized lung cancer cells were performed following the addition of palmitoyl-carnitine 25 µM (ETF-linked substrate), rotenone 0.5 µM, ADP 100 µM. DatLab software (Oroboros Instruments, Innsbruck, Austria) was used for data acquisition and analysis.

In the case of `COc1ccc(CN2CCNCC2)c(OC)c1OC` [Trimetazidine, 1-(2,3,4-trimethoxybenzyl)piperazine], the “effect on OX- tumors” value in test [1] is “no effect”. Further, the tumor size result in test [2] is recorded as “Reduction of tumor size”. Besides, the “Fatty-acids accumulation in the blood” value in test [3] (OX+ mice) is “accumulation”. Moreover, in test [3] (blood of OX+ mice), the “level of hydroxylated fatty acids (C18-OH, C18-1OH, C18-2OH, C16OH, C14OH)” value was “increased”. Further, in the test with A549 (OX+) cells [4], the cell viability entry was “Dose-dependent reduction”. Further, the mitochondrial respiration entry in the test with A549 (OX+) cells [5] is on record as “inhibited”.
